Source: patent publication US20180282279A1, “Pantothenamide Analogues” (Radboud Universitair Medisch Centrum, priority 2014, published 2018)
≈ marks a conversion by molar mass, not a printed value. Entries after “also recorded” stand apart in the source; their conditions may differ. Like-named read-outs stand apart in the source and are kept apart here.

Experiments:
[1] = test system: fetal bovine serum as a source of pantetheinase activity; assay: Stability in vitro in fetal bovine serum (LC-MS); format: in vitro ADME
Experimental: FIG. 1: Inverted amides are stable in serum. The stability of pantothenamide CXP18.3-002 (A-C) and its corresponding inverted amide CXP18.6-006 (D-F) was measured using LC-MS analysis after overnight incubation in buffer (A and D), buffer with 10% fetal bovine serum (B and E) and buffer with 10% FBS supplemented with the vanin inhibitor RR6 (C-F). Fetal bovine serum contains a high level of vanin (pantetheinase) activity. Both compounds are stable after incubation in buffer alone (figure A and D). The small peaks in the amine channels, with molecular masses of 163 (A) en 191 (D), are either the result of disruption of compound during ionization (CXP18.3-002-sample) or background from the buffer (CXP18.6-006-sample). […] Explanation of masses and compounds: CXP18.3-002, exact mass 322.189, found at mass 305 (—H2O (18)+H^+(1)). Amine from CXP18.3-002, exact mass 121.089, found at 163 (+ACN(41) +H^+(1)). Pantothenic acid, exact mass 219.111, found at mass 220 (+H^+(1)). RR6, exact mass 293.163, found at 294 (+H^+(1)). CXP18.6-006, exact mass 322.189, found at mass 305 (—H2O (18) +H^+(1)). Amine from CXP18.6-006, exact mass 150.068, found at 151 (+H^+(1)).
Conventional pantothenamides are hydrolysed by pantetheinases in body fluids as shown before (Jansen et al 2013) thereby losing their antimicrobial activity (Jansen et al 2013, Spry et al 2013, PLoS One 8:e54974). Bioisosteric pantothenamides retained their in vitro antimicrobial activity in the presence of serum, as will be shown in the next examples. To examine the stability of analogues in vitro, CXP18.3-002 and its bioisostere CXP18.6-006 were incubated for 16 h at room temperature in PBS with 10% fetal bovine serum as a source of pantetheinase activity. Samples were taken and analyzed by LC-MS using a Shimadzu LC10ATvp HPLC coupled to a Shimadzu LCMS2010 A mass spectrometer. […] The hydrolysis of the pantothenamides by fetal bovine serum could be inhibited by the addition of RR6, a potent inhibitor of pantetheinase activity, as described before (Jansen en al 2013).

[2] = Pharmacokinetic study in rats; format: in vivo; conditions: rat, blood, 50 mg/kg in saline, oral administration
Experimental: To address the question if increased stability would also lead to improved bioavailability in vivo, a pharmacokinetic study was performed. Briefly, the pantothenamides N5-Pan (an antibacterial compound) and CXP18.3-002 (an antimalarial compound), and their corresponding inverted amides CXP18.6-013 and CXP18.6-006 were administered to rats at 50 mg/kg dissolved in saline. Blood samples were collected from 3 rats before the experiment and at 0.25, 0.5, 1, 2, 4, 6, 8, 12 and 24 h. The concentrations of the compounds were analyzed by LC-MS/MS (AB Sciex API-4000 system). Data were analyzed by the Non-compartmental analysis tool of Phoenix WinNonlin (Version 6.3).

Staphylococcus aureus = assay: Bacterial growth assay and MIC determination, S. aureus; format: cell-based; conditions: Staphylococcus aureus
Experimental: (§1) Strains of Escherichia coli, Staphylococcus aureus and Staphylococcus epidermidis, were grown overnight in 1% Bacto tryptone medium (BD, Sparks, Md.). Streptococcus pyogenes was grown overnight in Bacto Todd Hewitt Broth medium (BD, Sparks, Md.). Cultures were then diluted 1:1,000 in fresh assay medium supplemented with or without 20% fetal bovine serum (FBS; HyClone, Celbio, Logan, Utah) and added to 96-well sterile enzyme-linked immunosorbent assay (ELISA) plates (100 μl per well). The compounds to be tested were diluted in the medium without serum and added to the bacteria (100 μl per well). Plates were incubated at 37° C., and bacterial growth was monitored over time by reading the optical density at 490 nm using a microplate reader (model 450; Bio-Rad Laboratories Inc., Hercules, Calif.). Streptococcus pneumoniae strains were grown to mid-log phase (OD620 of 0.3) and stored in 15% glycerol at […] till further use. Minimal inhibitory concentration (MIC) of antibiotics was determined according to standard procedures. Bacteria were diluted 10-fold in Mueller-Hinton medium (BD, Sparks, Md.) and added to 96-well sterile ELISA plates (150 μl per well). The compounds to be tested were diluted in the medium without serum and added to the bacteria (150 μl per well). Plates were incubated overnight at 37° C. in 5% CO2. The MIC was defined as the lowest concentration of compound at which no growth was visible with the naked eye.

Escherichia coli = assay: Bacterial growth assay and MIC determination, E. coli; format: cell-based; conditions: Escherichia coli, serum −, read-out: MIC
Experimental: as §1

| stability after overnight incubation in buffer ([1]; buffer alone) | stability in buffer with 10% FBS supplemented with the vanin inhibitor RR6 ([1]; overnight) | AUC(0-inf) [2] [ng·h/mL] | Cmax [2] [ng/mL] | Tmax [2] [h] | half-life ([2]; elimination phase) [h] | Compound | stability in buffer with 10% fetal bovine serum ([1]; PBS with 10% FBS, 16 h (overnight), room temperature) | MIC (Staphylococcus aureus; S. aureus, serum −, read-out: MIC) [µg/mL] | MIC (Staphylococcus aureus; Table 1, most sensitive species S. aureus (SA), read-out: MIC (μg/ml) for most sensitive bacterial species) [µg/mL] | MIC (Escherichia coli) [µg/mL] |
| --- | --- | --- | --- | --- | --- | --- | --- | --- | --- | --- |
| stable | had no effect | 6620 | 3360 | 0.33 | 3.6 | CC(C)(CO)[C@@H](O)C(=O)NCCNC(=O)CCc1ccccc1 [CXP18.6-006] | remains intact; also recorded: No appreciable degradation | – | – | – |
| – | – | – | – | – | – | CC(C)(CO)[C@@H](O)C(=O)NCCNC(=O)CCc1ccccc1F [CXP18.6-017] | – | 2 (≈ 5.88 µM) | 2 (≈ 5.88 µM) | > 256 |
